As usually defined, the EC50 is the midpoint of the concentration-response curve. Usually CC50 stands for the concentration at which the toxic effect on the cells reaches its halfway point. Low values mean harm at low concentration, high ones better tolerance by the cells.

One data set concerns rgRSV224 virus. Put plainly: Antiviral activity: rgRSV224 (GFP) replication in HeLa cells. The data set is classed as cell-based. The conditions noted are these: human respiratory syncytial virus, 72 h, read-out: RSV HELA EC50 (μM). The method, then: (§1) Black 384-well clear-bottom microtiter plates (Corning, Amsterdam, The Netherlands) were filled via acoustic drop ejection using the echo liquid handler (Labcyte, Sunnyvale, California). 200 nL of compound stock solutions (100% DMSO) were transferred to the assay plates. 9 serial 4-fold dilutions of compound were made, creating per quadrant the same compound concentration. The assay was initiated by adding 10 μL of culture medium to each well (RPMI medium without phenol red, 10% FBS-heat inactivated, 0.04% gentamycin (50 mg/mL). All addition steps are done by using a multidrop dispenser (Thermo Scientific, Erembodegem, Belgium). Next, rgRSV224 virus (MOI=1) diluted in culture medium was added to the plates. rgRSV224 virus is an engineered virus that includes an additional GFP gene (Hallak LK, Spillmann D, Collins PL, Peeples ME. Glycosaminoglycan sulfation requirements for respiratory syncytial virus infection; Journal of virology (2000), 74(22), 10508-13) and was in-licensed from the NIH (Bethesda, MD, USA). Finally, 20 μL of a HeLa cell suspension (3,000 cells/well) were plated. Medium, virus- and mock-infected controls were included in each test. The wells contain 0.05% DMSO per volume. Cells were incubated at 37° C. in a 5% CO2 atmosphere. Three days post-virus exposure, viral replication was quantified by measuring GFP expression in the cells by an in house developed MSM laser microscope (Tibotec, Beerse, Belgium). The EC50 was defined as the 50% inhibitory concentration for GFP expression. In parallel, compounds were incubated for three days in a set of white 384-well microtiter plates (Corning) and the cytotoxicity of compounds in HeLa cells was determined by measuring the ATP content of the cells using the ATPlite kit (Perkin Elmer, Zaventem, Belgium) according to the manufacturer's instructions. The CC50 was defined as the 50% concentration for cytotoxicity.

A short description of a further data set: in vitro. The conditions noted are these: human. The data set is classed as cell-based. The method, then: as §1

For the molecule `C[C@@H]1c2ccccc2CCN1C(=O)c1cc(C2CC2)c2nc(-c3ccc(N4CC[C@H](C(=O)O)C4)cc3F)oc2c1` [Compound 21, (3S)-1-(4-{4-Cyclopropyl-6-[(1R)-1-methyl-1,2,3,4-tetrahydroisoquinoline-2-carbonyl]-1,3-benzoxazol-2-yl}-3-fluorophenyl)pyrrolidine-3-carboxylic acid], the EC50 in the data set with rgRSV224 virus worked out at 0.01 µM. In “in vitro”, this molecule had a CC50 at 3 days of 51.5 µM.

Take `C[C@@H]1c2ccccc2CCN1C(=O)c1cc(C2CC2)c2cc(-c3ccc(N4CC[C@@H](C(=O)O)C4)cc3F)n(C)c2c1` [Compound 10, (R)-1-(4-(4-cyclopropyl-1-methyl-6-((R)-1-methyl-1,2,3,4-tetrahydroisoquinoline-2-carbonyl)-1H-indol-2-yl)-3-fluorophenyl)pyrrolidine-3-carboxylic acid]: the EC50 in the data set with rgRSV224 virus turned out to be 2.64 µM. Moreover, half-maximal cytotoxicity in the data set “in vitro” (CC50 at 3 days) was put at 21.1 µM.

For `C[C@@H]1c2ccccc2CCN1C(=O)c1cc(C2CC2)c2nc(-c3ccc(N4CC[C@H](C(=O)O)C4)cc3F)n(C)c2n1` [Compound 12, Methyl (3S)-1-(4-{7-cyclopropyl-3-methyl-5-[(1R)-1-methyl-1,2,3,4-tetrahydroisoquinoline-2-carbonyl]-3H-imidazo[4,5-b]pyridin-2-yl}-3-fluorophenyl)pyrrolidine-3-carboxylic acid], the EC50 with rgRSV224 virus was 0.43 µM. This molecule came in with a CC50 at 3 days in “in vitro” of 63 µM.

As to `C[C@@H]1c2ccccc2CCN1C(=O)c1cc(C2CC2)c2nc(-c3ccc(N4C[C@H](O)[C@@H](O)C4)cc3F)oc2n1` [Compound 2, (7-cyclopropyl-2-(4-((3 S,4S)-3,4-dihydroxypyrrolidin-1-yl)-2-fluorophenyl)oxazolo[5,4-b]pyridin-5-yl)((R)-1-methyl-3,4-dihydroisoquinolin-2(1H)-yl)methanone], the EC50 in the data set with rgRSV224 virus is 0.02 µM. Further, the CC50 at 3 days in the data set “in vitro” worked out at 26 µM.

On to `C[C@@H]1c2ccccc2CCN1C(=O)c1cc(C2CC2)c2c(n1)nc(-c1ccc(C3C[C@H]3C(=O)O)cc1F)n2C` (relative stereo) [Compound 13, (Trans)-2-(4-(7-cyclopropyl-1-methyl-5-((R)-1-methyl-1,2,3,4-tetrahydroisoquinoline-2-carbonyl)-1H-imidazo[4,5-b]pyridin-2-yl)-3-fluorophenyl)cyclopropane-1-carboxylic acid], for which, in the data set with rgRSV224 virus, the EC50 amounted to 22.4 µM. Besides, the CC50 at 3 days in the data set “in vitro” was over 100 µM.

On to `C[C@@H]1c2ccccc2CCN1C(=O)c1cc(C2CC2)c2nn(-c3ccc(N)cc3F)cc2c1` [Compound 19, 4-{7-Cyclopropyl-5-[(1R)-1-methyl-1,2,3,4-tetrahydroisoquinoline-2-carbonyl]-2H-indazol-2-yl}-3-fluoroaniline], for which the EC50 in the data set with rgRSV224 virus amounted to 0.16 µM. In “in vitro”, this molecule showed a CC50 at 3 days of 55.2 µM.

As for `C[C@@H]1c2ccccc2CCN1C(=O)c1cc(C2CC2)c2nn(-c3ccc(NC(=O)N4CC[C@@H](O)C4)cc3F)cc2n1` [Compound 7, (R)-N-(4-(7-cyclopropyl-5-((R)-1-methyl-1,2,3,4-tetrahydroisoquinoline-2-carbonyl)-2H-pyrazolo[4,3-b]pyridin-2-yl)-3-fluorophenyl)-3-hydroxypyrrolidine-1-carboxamide], in the data set with rgRSV224 virus, the EC50 was 0.05 µM. Moreover, in the data set “in vitro”, the CC50 at 3 days came to 47.6 µM.

With `C[C@@H]1c2ccccc2CCN1C(=O)c1cc(C2CC2)c2nc(-c3ccc(NC(=O)N4CC[C@@H](O)C4)cc3F)n(C)c2c1` [Compound 18, (3R)-N-(4-{4-Cyclopropyl-1-methyl-6-[(1R)-1-methyl-1,2,3,4-tetrahydroisoquinoline-2-carbonyl]-1H-1,3-benzodiazol-2-yl}-3-fluorophenyl)-3-hydroxypyrrolidine-1-carboxamide], in the data set with rgRSV224 virus, the EC50 stood at 0.14 µM. In the data set “in vitro”, this molecule returned a CC50 at 3 days of 51.6 µM.

Source of the values: patent publication US20240158390A1, “OTHER HETEROAROMATIC COMPOUNDS HAVING ACTIVITY AGAINST RSV” (Janssen Sciences Ireland Unlimited Company, priority 2019, published 2024).
